Experimental data as given in patent publication US6737383B1, “Herbicidal oxadiazolidines” (priority 1999, dated 2004).

Key:
[1] = system: bedstraw; assay: Test B pre/postemergence bedstraw; assay type: in vivo, Galium aparine
In short: (§1)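 Response is a visual 0-to-10 score relative to untreated plants, where 0 means no effect and 10 means complete control, taken twelve to sixteen days after application. Treatments went onto soil at planting and onto foliage of 1- to 4-leaf plants, using a surfactant-containing non-phytotoxic solvent.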

[2] = system: blackgrass; assay: Test B pre/postemergence blackgrass; assay type: in vivo, Alopecurus myosuroides
In short: as §1

[3] = system: surinam grass; assay: Test B pre/postemergence surinam grass; assay type: in vivo, Brachiaria decumbens
In short: as §1

[4] = system: cocklebur; assay: Test B pre/postemergence cocklebur; assay type: in vivo, Xanthium strumarium
In short: as §1

[5] = system: corn; assay: Test B pre/postemergence corn; assay type: in vivo, Zea mays
In short: as §1

[6] = system: giant foxtail; assay: Test B pre/postemergence giant foxtail; assay type: in vivo, Setaria faberii
In short: as §1

[7] = system: morningglory; assay: Test B pre/postemergence morningglory; assay type: in vivo, Ipomoea hederacea
In short: as §1

[8] = system: pigweed; assay: Test B pre/postemergence pigweed; assay type: in vivo, Amaranthus retroflexus
In short: as §1

[9] = system: rape; assay: Test B pre/postemergence rape; assay type: in vivo, Brassica napus
In short: as §1

[10] = system: soybean; assay: Test B pre/postemergence soybean; assay type: in vivo, Glycine max
In short: as §1

[11] = system: sugar beet; assay: Test B pre/postemergence sugar beet; assay type: in vivo, Beta vulgaris
In short: as §1

[12] = system: velvetleaf; assay: Test B pre/postemergence velvetleaf; assay type: in vivo, Abutilon theophrasti
In short: as §1

[13] = system: purple nutsedge; assay: Test B pre/postemergence purple nutsedge; assay type: in vivo, Cyperus rotundus
In short: as §1

[14] = system: smallflower flatsedge; assay: Test B flood test smallflower flatsedge; assay type: in vivo, Cyperus difformis
In short: (§2)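 Each value is a visual injury score relative to controls, with 10 meaning complete control and 0 no effect. Evaluation took place twelve to sixteen days after the 2-leaf-stage plants were treated and kept in the greenhouse.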

[15] = system: duck salad; assay: Test B flood test duck salad; assay type: in vivo, Heteranthera limosa
In short: as §2

[16] = system: bamyardgrass; assay: Test B flood test barnyardgrass; assay type: in vivo, Echinochloa crus-galli
In short: as §2

[17] = Postemergence, Rate 62 g/ha, scale 0 to 10, 0 is no effect, 10 is complete control
[18] = Postemergence, Rate 250 g/ha, scale of 0 to 10, 0 is no effect, 10 is complete control
[19] = Postemergence, Rate 500 g/ha, scale of 0 to 10 where 0 is no effect and 10 is complete control
[20] = Preemergence, Rate 500 g/ha, scale of 0 to 10 where 0 is no effect and 10 is complete control
[21] = Postemergence, Rate 125 g/ha, scale of 0 to 10 where 0 is no effect and 10 is complete control
[22] = Preemergence, Rate 62 g/ha, scale 0 to 10 (0 no effect, 10 complete control)
[23] = Preemergence, Rate 125 g/ha, scale of 0 to 10 where 0 is no effect and 10 is complete control
[24] = Rate 62 g/ha, flood test species, Pre-emergence, visual evaluation after twelve to sixteen days
[25] = Rate 125 g/ha, under heading Pre-emergence, flood test species, visual evaluation after twelve to sixteen days
[26] = Rate 250 g/ha, Pre-emergence (flood test species), scale 0 to 10, 0 is no effect, 10 is complete control
[27] = Rate 500 g/ha, Pre-emergence section of Table B, 0 to 10 scale (0 no effect, 10 complete control)

SMILES: CCC(C)n1c(=O)on(C(=O)N(c2ccccc2)C(C)C)c1=O (centres unmarked) [Compound 610]
- Plant response rating, Bedstraw [1, 17]: 0
- Bedstraw plant response rating [1, 18]: 4
- Plant response rating, Bedstraw [1, 19]: 9
- Bedstraw plant response rating [1, 20]: 10
- Plant response rating, Blackgrass [2, 17]: 8
- Plant response rating, Blackgrass [2, 21]: 9
- Blackgrass plant response rating [2, 18]: 9
- Plant response rating, Blackgrass [2, 19]: 10
- Blackgrass plant response rating [2, 22]: 8
- Blackgrass plant response rating [2, 23]: 9
- Blackgrass plant response rating (0 to 10 scale) ([2]; Preemergence, Rate 250 g/ha): 10
- Blackgrass plant response rating [2, 20]: 10
- Plant response rating, B. signalgrass [3, 17]: 0
- Plant response rating, B. signalgrass [3, 21]: 6
- B. signalgrass plant response rating [3, 18]: 7
- Plant response rating, B. signalgrass [3, 19]: 9
- B. signalgrass plant response rating [3, 22]: 6
- B. signalgrass plant response rating [3, 23]: 8
- B. signalgrass plant response rating (0 to 10 scale, 0 is no effect, 10 is complete control) ([3]; Preemergence, Rate 250 g/ha): 9
- B. signalgrass plant response rating [3, 20]: 10
- Plant response rating, Cocklebur [4, 17]: 0
- Plant response rating, Cocklebur [4, 21]: 1
- Cocklebur plant response rating [4, 18]: 0
- Plant response rating, Cocklebur [4, 19]: 2
- Cocklebur plant response rating [4, 22]: 0
- Cocklebur plant response rating [4, 23]: 0
- Cocklebur plant response rating (0 to 10 scale) ([4]; Preemergence, Rate 250 g/ha): 0
- Plant response rating, Cocklebur [4, 20]: 3
- Plant response rating, Corn [5, 17]: 0
- Plant response rating, Corn [5, 21]: 0
- Corn plant response rating [5, 18]: 2
- Plant response rating, Corn [5, 19]: 5
- Corn plant response rating [5, 22]: 0
- Corn plant response rating [5, 23]: 3
- Corn plant response rating (0 to 10 scale) ([5]; Preemergence, Rate 250 g/ha): 7
- Plant response rating, Corn [5, 20]: 8
- Plant response rating, Giant foxtail [6, 17]: 8
- Plant response rating, Giant foxtail [6, 21]: 7
- Giant foxtail plant response rating [6, 18]: 9
- Plant response rating, Giant foxtail [6, 19]: 9
- Giant foxtail plant response rating [6, 22]: 9
- Giant foxtail plant response rating [6, 23]: 10
- Plant response rating, Giant foxtail [6, 20]: 10
- Plant response rating, Morningglory [7, 17]: 8
- Plant response rating, Morningglory [7, 21]: 8
- Morningglory plant response rating [7, 18]: 8
- Plant response rating, Morningglory [7, 19]: 9
- Morningglory plant response rating [7, 22]: 0
- Morningglory plant response rating [7, 23]: 3
- Plant response rating, Morningglory [7, 20]: 8
- Plant response rating, Redroot pigweed [8, 17]: 0
- Plant response rating, Redroot pigweed [8, 21]: 2
- Redroot pigweed plant response rating [8, 18]: 6
- Plant response rating, Redroot pigweed [8, 19]: 7
- Redroot pigweed plant response rating [8, 22]: 10
- Redroot pigweed plant response rating [8, 23]: 10
- Plant response rating, Redroot pigweed [8, 20]: 10
- Plant response rating, Rape [9, 17]: 0
- Plant response rating, Rape [9, 21]: 2
- Rape plant response rating [9, 18]: 3
- Plant response rating, Rape [9, 19]: 5
- Rape plant response rating [9, 22]: 3
- Rape plant response rating [9, 23]: 8
- Plant response rating, Rape [9, 20]: 10
- Plant response rating, Soybean [10, 17]: 5
- Plant response rating, Soybean [10, 21]: 7
- Soybean plant response rating [10, 18]: 8
- Plant response rating, Soybean [10, 19]: 9
- Soybean plant response rating [10, 22]: 0
- Soybean plant response rating [10, 23]: 6
- Plant response rating, Soybean [10, 20]: 8
- Plant response rating, Sugarbeets [11, 17]: 0
- Plant response rating, Sugarbeets [11, 21]: 0
- Sugarbeets plant response rating [11, 18]: 0
- Plant response rating, Sugarbeets [11, 19]: 0
- Sugarbeets plant response rating [11, 22]: 3
- Sugarbeets plant response rating [11, 23]: 7
- Plant response rating, Sugarbeets [11, 20]: 8
- Plant response rating, Velvetleaf [12, 17]: 0
- Plant response rating, Velvetleaf [12, 21]: 3
- Velvetleaf plant response rating [12, 18]: 7
- Plant response rating, Velvetleaf [12, 19]: 7
- Velvetleaf plant response rating [12, 22]: 7
- Velvetleaf plant response rating [12, 23]: 7
- Plant response rating, Velvetleaf [12, 20]: 10
- Plant response rating, Nutsedge [13, 17]: 0
- Plant response rating, Nutsedge [13, 21]: 0
- Nutsedge plant response rating [13, 18]: 5
- Plant response rating, Nutsedge [13, 19]: 6
- Nutsedge plant response rating [13, 22]: 0
- Nutsedge plant response rating [13, 23]: 0
- Plant response rating, Nutsedge [13, 20]: 3
- Plant response rating, S. Flatsedge (0 to 10 scale, 0 is no effect, 10 is complete control) [14, 24]: 0
- S. Flatsedge plant response rating (0 to 10 scale, 0 is no effect, 10 is complete control) [14, 25]: 0
- S. Flatsedge plant response rating [14, 26]: 0
- S. Flatsedge plant response rating [14, 27]: 8
- Plant response rating, Ducksalad (0 to 10 scale, 0 is no effect, 10 is complete control) [15, 24]: 0
- Ducksalad plant response rating (0 to 10 scale, 0 is no effect, 10 is complete control) [15, 25]: 0
- Ducksalad plant response rating [15, 26]: 0
- Ducksalad plant response rating [15, 27]: 7
- Plant response rating, Barnyardgrass (0 to 10 scale, 0 is no effect, 10 is complete control) [16, 24]: 0
- Barnyardgrass plant response rating (0 to 10 scale, 0 is no effect, 10 is complete control) [16, 25]: 0
- Barnyardgrass plant response rating [16, 26]: 0
- Barnyardgrass plant response rating [16, 27]: 8
